In one assay the target is T1, Monoamine oxidase (Mus musculus, UniProt Q8BW75+Q64133).
T1 sequence (Q8BW75 whole entry): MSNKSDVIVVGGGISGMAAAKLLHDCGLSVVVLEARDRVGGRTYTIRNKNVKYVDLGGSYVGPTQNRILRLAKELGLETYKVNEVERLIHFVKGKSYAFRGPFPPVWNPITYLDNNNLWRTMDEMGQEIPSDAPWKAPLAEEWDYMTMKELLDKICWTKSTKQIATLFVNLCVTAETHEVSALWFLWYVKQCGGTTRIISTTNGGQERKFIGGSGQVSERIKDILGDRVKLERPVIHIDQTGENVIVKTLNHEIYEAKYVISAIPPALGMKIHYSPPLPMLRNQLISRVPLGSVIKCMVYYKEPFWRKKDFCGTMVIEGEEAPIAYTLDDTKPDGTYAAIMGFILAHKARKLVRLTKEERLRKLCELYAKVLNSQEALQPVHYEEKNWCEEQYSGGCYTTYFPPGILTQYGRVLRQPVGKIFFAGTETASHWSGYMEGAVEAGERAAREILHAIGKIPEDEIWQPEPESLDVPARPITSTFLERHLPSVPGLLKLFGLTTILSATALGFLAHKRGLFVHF
T1 sequence (Q64133 whole entry): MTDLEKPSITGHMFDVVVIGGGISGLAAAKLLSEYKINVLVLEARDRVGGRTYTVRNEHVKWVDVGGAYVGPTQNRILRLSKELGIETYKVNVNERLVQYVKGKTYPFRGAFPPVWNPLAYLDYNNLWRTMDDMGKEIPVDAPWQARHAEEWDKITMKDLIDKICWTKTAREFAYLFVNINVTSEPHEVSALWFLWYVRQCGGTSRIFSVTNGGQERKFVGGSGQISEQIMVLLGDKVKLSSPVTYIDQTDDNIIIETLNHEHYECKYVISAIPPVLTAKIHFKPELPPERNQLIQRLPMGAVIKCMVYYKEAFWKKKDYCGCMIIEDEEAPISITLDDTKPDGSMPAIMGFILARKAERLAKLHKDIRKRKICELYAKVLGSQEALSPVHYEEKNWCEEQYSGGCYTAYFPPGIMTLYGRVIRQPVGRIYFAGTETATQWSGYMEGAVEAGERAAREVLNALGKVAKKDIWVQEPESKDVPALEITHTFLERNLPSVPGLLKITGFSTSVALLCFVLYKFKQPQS
As to the kind of experiment: Inhibition of mouse brain mitochondrial MAO using kynuramine as substrate incubated for 15 mins measured fluorometric analysis. Format: mitochondria, Mitochondria.

For assay [1], the system named is PC-12. As to the kind of experiment: Cytotoxicity in rat PC-12 cells assessed as cell viability measured at 30 uM for 24 hrs by MTT assay. The assay is classed as functional, cell-based. (Tetrazolium dyes change colour on reduction, which living cells bring about.)
In assay [2] the test system is PC-12. As to the kind of experiment: Neuroprotective activity against 6-OHDA-induced cytotoxicity in rat PC-12 cells at 10 uM for 4 hrs followed by exposure to 6-OHDA measured after 24 hrs by MTT assay. Format: functional, cell-based. Conditions: time 28.0 hrs.
Assay [3] concerns PC-12. As to the kind of experiment: Cytotoxicity in rat PC-12 cells assessed as cell viability measured at 10 uM for 24 hrs by MTT assay. The assay is classed as functional, cell-based.
Assay [4] has as its system PC-12. As to the kind of experiment: Neuroprotective activity against 6-OHDA-induced cytotoxicity in rat PC-12 cells at 30 uM for 4 hrs followed by exposure to 6-OHDA measured after 24 hrs by MTT assay. Conditions: time 28.0 hrs. The assay is classed as functional, cell-based.

Calls of active or inactive are those of the source. No cut-off for these calls is given here.

As a reminder, the IC50 is the concentration that inhibits the measured activity by half. Read a low IC50 as inhibition by little substance.

As to `CC1(C)C=Cc2c(cc3occ(-c4ccc(O)cc4)c(=O)c3c2O)O1` [ALPINUMISOFLAVONE], the IC50 on Monoamine oxidase is 25.8 µM. In the assay on PC-12 [1], the result was Active.
Regarding `CC1(C)Oc2c(c(O)cc3occ(-c4ccco4)c(=O)c23)CC1O` (stereo not given), the result in the assay on PC-12 [2] and with PC-12 [3] was Active. Also, the result with PC-12 [4] was inactive.

The record behind these values is ChEMBL document CHEMBL5352401, “Novel cudraisoflavone J derivatives as potent neuroprotective agents for the treatment of Parkinson's disease via the activation of Nrf2/HO-1 signaling” (Eur J Med Chem, 2022).
